Laboratory results as given in patent US5965701A, “Kappa receptor opioid peptides” (priority 1997, dated 1999).
Values joined by “and” are separate entries in the source; they are usually repeats but may differ in a detail not shown here. Equal values may be shown once. Where a SMILES comes first, the peptide text is derived from it. [ ]: non-standard residue; d: D form. The star is where a group is joined. dPhe(3,4-Cl2) = N[C@H](Cc1ccc(Cl)c(Cl)c1)C(=O)O; dPhe(4-CH2NH2) = NCc1ccc(C[C@@H](N)C(=O)O)cc1; dPhe(4-Cl) = N[C@H](Cc1ccc(Cl)cc1)C(=O)O; dPhe(4-F) = N[C@H](Cc1ccc(F)cc1)C(=O)O; d2Nal = N[C@H](Cc1ccc2ccccc2c1)C(=O)O; d2Thi = N[C@H](Cc1cccs1)C(=O)O; NH(3-picolyl) = c1cncc(CN*)c1; NH(4-picolyl) = c1cc(CN*)ccn1; N(CH2CH2)2NH = C1CN(*)CCN1; dNle = CCCC[C@@H](N)C(=O)O; Morpholide = C1CN(*)CCO1; NHBn = c1ccc(CN*)cc1; NHCH2CH2OH = OCCN*; X2 = OC1CCN(*)CC1

Legend:
[1] = molecular target: T1, cloned human kappa (hKOR) receptor (Homo sapiens, UniProt P41145); assay: biochemical; type: binding; details: for μ/κ Ratio (binding affinity for KOR versus MOR): Ki MOR / Ki KOR; for Ki: read-out: Ki KOR
T1 construct: expressed in transfected cells; host or cells: HN9.10 (mouse hippocampal neuroblastoma), stably transfected
T1 sequence (P41145 whole entry): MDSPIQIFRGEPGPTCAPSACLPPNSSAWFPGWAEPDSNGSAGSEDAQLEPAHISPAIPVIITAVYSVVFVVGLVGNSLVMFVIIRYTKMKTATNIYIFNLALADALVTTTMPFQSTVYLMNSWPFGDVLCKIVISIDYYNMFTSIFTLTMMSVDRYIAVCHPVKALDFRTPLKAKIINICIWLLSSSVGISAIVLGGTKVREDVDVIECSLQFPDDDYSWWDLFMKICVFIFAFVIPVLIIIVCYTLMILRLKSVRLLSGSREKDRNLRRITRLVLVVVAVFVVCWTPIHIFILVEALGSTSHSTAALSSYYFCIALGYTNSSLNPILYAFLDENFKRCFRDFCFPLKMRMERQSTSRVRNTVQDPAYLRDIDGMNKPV

[2] = molecular target: T2, cloned human mu opioid (hMOR) receptor (Homo sapiens, UniProt P35372); assay: Competition binding at cloned hMOR, displacement of 3H-DAMGO; details: hMOR stably expressed in HN.9.10 cells, read-out: Ki MOR
T2 construct: expressed in transfected cells; host or cells: HN9.10 (mouse hippocampal neuroblastoma), stably transfected
T2 sequence (P35372 whole entry): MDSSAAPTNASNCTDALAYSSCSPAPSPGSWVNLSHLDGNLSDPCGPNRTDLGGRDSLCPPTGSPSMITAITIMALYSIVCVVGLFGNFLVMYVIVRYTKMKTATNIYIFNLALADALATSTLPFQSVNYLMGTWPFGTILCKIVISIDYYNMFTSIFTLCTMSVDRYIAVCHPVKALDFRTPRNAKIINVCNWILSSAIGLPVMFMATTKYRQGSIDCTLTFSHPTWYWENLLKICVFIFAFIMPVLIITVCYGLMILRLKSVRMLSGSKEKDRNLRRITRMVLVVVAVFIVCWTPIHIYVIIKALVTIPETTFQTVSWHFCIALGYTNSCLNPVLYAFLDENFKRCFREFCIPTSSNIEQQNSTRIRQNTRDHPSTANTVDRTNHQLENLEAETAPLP

conscious male ICR mice = assay: Mouse acetic acid writhing test (WT); type: in vivo; details: for WT-ED50: i.v., 5 minutes before acetic acid i.p., writhes over 15 minutes; for % Antinociception 1 hr / % Antinociception 2 hr: submaximal effective dose i.v., percentage of the activity found at -5 min; for % Antinociception 1 hr: 60 min pretreatment; for % Antinociception 2 hr: 120 min pretreatment
Method: Selected peptides that are identified in Tables A-G have been further specifically subjected to in vivo testing for determination of duration of action of their opioid properties, and the results are reported in Table H hereinafter. The peptide numbers correspond to those in the earlier tables and the figures with regard to μ/K ratio are simply carried over for reference purposes. The in vivo testing is carried out using a mouse writhing test (WT) that is well-suited for determining the length of duration of antinociceptive biological activity. This test is described in detail in an article by G. A. Bentley et al., Br. J. Phamac., 73:325-332, 1981, and it employs conscious male ICR mice which are purchased from Harlan and which weigh between 20 and 30 grams. The mice are fasted for 12 to 16 hours prior to beginning the test. The nociceptive behavior, i.e. writhing, to be monitored is induced by the intraperitoneal (i.p.) administration of dilute acetic acid. 10 milliliters of 0.6% aqueous acetic acid is used per kg of body weight. Writhing is scored during the 15 minutes following acetic acid administration. In a first step, compounds are tested at 3 to 4 increasing doses, given by intravenous route, and at one unique pretreatment time (-5 minutes before acetic acid injection). […] In a second step, this submaximal effective dose for each specific peptide is administered at various pretreatment times (i.e. -5 minutes, -60 minutes, -120 minutes and -180 minutes) prior to the administration of the acetic acid in order to determine the duration of action. Throughout the test, a control group of mice are used which are administered only the vehicle without the candidate peptide. The number of writhes are counted over a 15-minute period, starting from the time of acetic acid injection, and bioactivity, i.e. antinociception, is expressed as a percentage, and is calculated as follows:
100×(writhes in control group-writhes in treated group)/writhes in
Values higher than 100% indicate greater antinociception than at the beginning of the experiment. It is felt that the opioid peptide should be effective to reduce writhing by at least about 25% at a time of 1 hour to be considered to have long duration of in vivo action.
In addition to using this test to determine duration of antinociceptive activity, it is also used to measure the in vivo biopotency (short term) of the peptide. This value is given in the table under the heading WT-ED50 in milligrams per kg of body weight. The value is a measure of the dosage necessary to reduce the number of writhes in the mouse being tested by 50% (as compared to a control mouse) over a period of 15 minutes.

| Compound | μ/κ Ratio (binding affinity for KOR versus MOR) [1] | Ki [1] [nM] | Ki [2] [nM] | WT-ED50 (conscious male ICR mice) | % Antinociception 1 hr (conscious male ICR mice) [%] | % Antinociception 2 hr (conscious male ICR mice) [%] |
| --- | --- | --- | --- | --- | --- | --- |
| H-D-Phe-D-Phe-D-Nle-D-Arg-NH-4-Ahz [Peptide 41] | 12,000 |  |  |  |  |  |
| CC(C)C[C@@H](NC(=O)[C@@H](Cc1ccc(Cl)c(Cl)c1)NC(=O)[C@H](N)Cc1cccs1)C(=O)N[C@H](CCCNC(=N)N)C(=O)NCc1ccncc1 [Peptide 60, H-D-Ala(2Thi)-D-3,4Cpa-D-Leu-D-Arg-NH(4Pic)] (H-[d2Thi][dPhe(3,4-Cl2)][dL][dR]-{NH(4-picolyl)}) | 1,900 | 0.4 | 769 | 0.083 mg/kg | 83.8 | 35.5 |
| H-D-Phe-D-Phe-D-Lcu-D-Dbu-NH(4Pic) [Peptide 52] | 92,000 |  |  |  |  |  |
| CCCC[C@@H](NC(=O)[C@@H](Cc1ccccc1)NC(=O)[C@H](N)Cc1ccccc1)C(=O)N[C@H](Cc1ccc(CN)cc1)C(=O)NCC [Peptide 55, H-D-Phe-D-Phe-D-Nle-D-Amf-NHEt] (H-[dF][dF][dNle][dPhe(4-CH2NH2)]-NHEt) | 12,500 | 0.14 | 1750 |  |  |  |
| H-D-Phe-D-Phe-D-Hle-D-Arg-NH(4Pic) [Peptide 45] | 11,000 |  |  |  |  |  |
| H-D-Phe-D-Phe-D-Nle-D-Har-Mor [Peptide 51] | 12,000 |  |  |  |  |  |
| CCCC[C@@H](NC(=O)[C@@H](Cc1ccccc1)NC(=O)[C@H](N)Cc1ccccc1)C(=O)N[C@H](CCCNC(=N)N)C(=O)NCc1ccccc1 [Peptide 14, H-D-Phe-D-Phe-D-Nle-D-Arg-NHBzl] (H-[dF][dF][dNle][dR]-NHBn) | 2,000 | 0.44 | 890 | 0.14 mg/kg | 36 |  |
| H-D-Phe-D-Phe-D-Lcu-D-Dbu-Mor [Peptide 53] | 85,000 |  |  |  |  |  |
| CCCC[C@@H](NC(=O)[C@@H](Cc1ccccc1)NC(=O)[C@H](N)Cc1ccccc1)C(=O)N[C@H](CCCNC(=N)N)C(=O)N1CCC(O)CC1 [Peptide 11, H-D-Phe-D-Phe-D-Nle-D-Arg-4-HyP] (H-[dF][dF][dNle][dR]-X2) | 62,000 | 0.06 | 3700 | 0.073 mg/kg and 0.07 mg/kg | 61.8 | 36.9 |
| CCCC[C@@H](NC(=O)[C@@H](Cc1ccccc1)NC(=O)[C@H](N)Cc1ccccc1)C(=O)N[C@H](CCCNC(=N)N)C(=O)NCCO [Peptide 9, H-D-Phe-D-Phe-D-Nle-D-Arg-NHhEt] (H-[dF][dF][dNle][dR]-NHCH2CH2OH) | 2,500 | 0.4 | 1010 | 0.03 mg/kg | 72.5 | 39.5 |
| CC(C)C[C@@H](NC(=O)[C@@H](Cc1ccc(Cl)c(Cl)c1)NC(=O)[C@H](N)Cc1cccs1)C(=O)N[C@H](CCCNC(=N)N)C(=O)N1CCOCC1 [Peptide 61, H-D-Ala(2Thi)-D-3,4Cpa-D-Leu-D-Arg-Mor] (H-[d2Thi][dPhe(3,4-Cl2)][dL][dR]-Morpholide) | 10,400 | 0.15 | 1560 |  |  |  |
| H-D-Phe-D-Phe-D-Nle-D-Arg-Ecp [Peptide 42] | 27,000 |  |  | 0.06 mg/kg | 45.3 | 29.4 |
| CC(C)C[C@@H](NC(=O)[C@@H](Cc1ccc2ccccc2c1)NC(=O)[C@H](N)Cc1cccs1)C(=O)N[C@H](CCCNC(=N)N)C(=O)N1CCOCC1 [Peptide 63, H-D-Ala(2Thi)-D-2Nal-D-Leu-D-Arg-Mor] (H-[d2Thi][d2Nal][dL][dR]-Morpholide) | 16,000 | 0.2 | 3170 | 0.04 mg/kg | 51.8 | 36.1 |
| H-D-Phe-D-Phe-D-CML-D-Oro-Mor [Peptide 46] | 14,000 |  |  |  |  |  |
| CC(C)C[C@@H](NC(=O)[C@@H](Cc1ccc2ccccc2c1)NC(=O)[C@H](N)Cc1ccc(F)cc1)C(=O)N[C@H](CCCNC(=N)N)C(=O)N1CCOCC1 [Peptide 62, H-D-4Fpa-D-2Nal-D-Leu-D-Arg-Mor] (H-[dPhe(4-F)][d2Nal][dL][dR]-Morpholide) | 3,500 | 0.33 | 1140 |  |  |  |
| H-D-Phe-D-Phe-D-Nle-D-Har-NH(4Pic) [Peptide 50] | 9,300 |  |  |  |  |  |
| CCCC[C@@H](NC(=O)[C@@H](Cc1ccccc1)NC(=O)[C@H](N)Cc1ccccc1)C(=O)N[C@H](CCCNC(=N)N)C(=O)N1CCNCC1 [Peptide 15, H-D-Phe-D-Phe-D-Nle-D-Arg-Ppz] (H-[dF][dF][dNle][dR]-{N(CH2CH2)2NH}) | 57,000 | 0.16 | 9100 | 0.017 mg/kg |  |  |
| CC(C)C[C@@H](NC(=O)[C@@H](Cc1ccc(Cl)cc1)NC(=O)[C@H](N)Cc1cccs1)C(=O)N[C@H](CCCNC(=N)N)C(=O)N1CCOCC1 [Peptide 59, H-D-Ala(2Thi)-D-4Cpa-D-Leu-D-Arg-Mor] (H-[d2Thi][dPhe(4-Cl)][dL][dR]-Morpholide) |  | 0.25 | 3360 |  |  |  |
| CC(C)C[C@@H](NC(=O)[C@@H](Cc1ccc(Cl)cc1)NC(=O)[C@H](N)Cc1cccs1)C(=O)N[C@H](CCCNC(=N)N)C(=O)NCc1ccncc1 [Peptide 64, H-D-Ala(2Thi)-D-4Cpa-D-Leu-D-Arg-NH(4Pic)] (H-[d2Thi][dPhe(4-Cl)][dL][dR]-{NH(4-picolyl)}) |  | 0.31 | 2380 |  |  |  |
| H-D-Phe-D-Phe-D-Lcu-D-Lys-Mor [Peptide 49] | 92,000 |  |  |  |  |  |
| CCCC[C@@H](NC(=O)[C@@H](Cc1ccccc1)NC(=O)[C@H](N)Cc1ccccc1)C(=O)N[C@H](Cc1ccc(CNC(=N)N)cc1)C(=O)N1CCOCC1 [Peptide 58, H-D-Phe-D-Phe-D-Nle-D-Gmf-Mor] | 6,500 | 0.46 | 3010 | 0.040 mg/kg |  |  |
| H-D-Phe-D-Phe-D-Acp-D-Arg-NH(4Pic) [Peptide 44] | 8,200 |  |  |  |  |  |
| CCCC[C@@H](NC(=O)[C@@H](Cc1ccccc1)NC(=O)[C@H](N)Cc1ccccc1)C(=O)N[C@H](CCCNC(=N)N)C(=O)NCc1cccnc1 [Peptide 54, H-D-Phe-D-Phe-D-Nle-D-Arg-NH(3Pic)] (H-[dF][dF][dNle][dR]-{NH(3-picolyl)}) | 3,100 | 0.39 | 1220 |  |  |  |
| H-D-Phe-D-Phe-D-Nle-D-Arg-NH-4Nhz [Peptide 40] | 3,800 |  |  |  |  |  |
| H-D-Phe-D-Phe-D-Lcu-D-Lys-NH(4Pic) [Peptide 47] | 30,000 |  |  |  |  |  |
| H-D-Phe-D-Phe-D-Lcu-D-Lys-NHPr [Peptide 48] | 18,000 |  |  |  |  |  |
| CC(C)C[C@@H](NC(=O)[C@@H](Cc1ccc(Cl)cc1)NC(=O)[C@H](N)Cc1ccc(F)cc1)C(=O)N[C@H](CCCNC(=N)N)C(=O)N1CCOCC1 [Peptide 65, H-D-4Fpa-D-4Cpa-D-Leu-D-Arg-Mor] (H-[dPhe(4-F)][dPhe(4-Cl)][dL][dR]-Morpholide) |  | 0.17 | 1900 |  |  |  |
| H-D-CMP-D-Phe-D-Nle-D-Arg-NH(4Pic) [Peptide 43] | 2,500 |  |  |  |  |  |
